Reference: US20150105409A1, “HDAC INHIBITORS, ALONE OR IN COMBINATION WITH BTK INHIBITORS, FOR TREATING NONHODGKIN'S LYMPHOMA” (Acetylon Pharmaceticals, Inc., priority 2013, published 2015)

What was measured:
Format in all cases: cell-based, human
Mino cells [1] = test: Apoptosis by 7-AAD/Annexin V flow cytometry; conditions: 48 hours, Compound A 3 or 12.5 μM, ibrutinib 10 or 30 μM, alone or combined (FIGS. 2-3)
Text: (§1) Annexin/PI flow cytometric analysis was used to determine percentage of apoptotic cells. […]

Z138 cells [2] = test: Apoptosis by 7-AAD/Annexin V flow cytometry; conditions: Z138, 48 hours; Compound A 3 or 12.5 μM, ibrutinib 10 or 30 μM, alone or combined (FIGS. 2-3)
Text: as §1

Mino cells [3] = test: Cell cycle analysis by propidium iodide flow cytometry; conditions: 48 hours, Compound A 13 μM, ibrutinib 10 μM, alone or combined (FIG. 5)
Method: Cells were fixed and stained with propidium iodide (PI) and were analyzed by flow cytometry.

Z138 MCL cells = test: CellTiter-Blue cell viability, combination (CI analysis); conditions: Z138, 72 hours, single agent
Text: Cell viability was next assessed using the CellTiter-Blue reagent (Promega). The results of these experiments are shown in FIG. 8 and in the Table below.

Mino MCL cells = test: as above; conditions: 72 hours, single agent
Text: Cell viability was next assessed using the CellTiter-Blue reagent (Promega).

Mino cells [4] = test: Viability of MCL cells after inhibition of HDAC6
Z138 cells [5] = test: Viability of MCL cells after inhibition of HDAC6
[6] = at Fa of combination dose 1.3E−6/3.1E−6
[7] = at Fa of combination dose 2.5E−6/6.2E−6
[8] = at Fa of combination dose 5.0E−6/12.5E−6
[9] = at Fa of combination dose 10.0E−6/25.0E−6
[10] = at Fa of combination dose 20.0E−6/50.0E−6
[11] = at Fa of combination dose 78.1E−9/195.3E−9
[12] = at Fa of combination dose 156.3E−9/390.6E−9
[13] = at Fa of combination dose 312.5E−9/781.2E−9
[14] = at Fa of combination dose 625.0E−9/1.6E−6

C=CC(=O)N1CCC[C@@H](n2nc(-c3ccc(Oc4ccccc4)cc3)c3c(N)ncnc32)C1 [ibrutinib, reference compound]
induction of apoptosis (Mino cells [1]): induction of apoptosis | induction of apoptosis (Z138 cells [2]): induction of apoptosis | cell cycle distribution (Mino cells [3]): little effect on cell cycle distribution | Dm (PCI-32765) (Z138 MCL cells; [6]): 56.7E−6 | Dm (PCI-32765) (Z138 MCL cells; [7]): 146.1E−6 | Dm (PCI-32765) (Z138 MCL cells; [8]): 376.3E−6 | Dm (PCI-32765) (Z138 MCL cells; [9]): 969.0E−6 | Dm (PCI-32765) (Z138 MCL cells; [10]): 2.5E−3 | Dm (PCI-32765) (Z138 MCL cells; [11]): 1.3E−6 | Dm (PCI-32765) (Z138 MCL cells; [12]): 3.3E−6 | Dm (PCI-32765) (Z138 MCL cells; [13]): 8.6E−6 | Dm (PCI-32765) (Z138 MCL cells; [14]): 22.0E−6 | Dm (PCI-32765) (Mino MCL cells; [6]): 5.1E−6 | Dm (PCI-32765) (Mino MCL cells; [7]): 10.2E−6 | Dm (PCI-32765) (Mino MCL cells; [8]): 20.5E−6 | Dm (PCI-32765) (Mino MCL cells; [10]): 83.0E−6 | Dm (PCI-32765) (Mino MCL cells; [11]): 308.7E−9 | Dm (PCI-32765) (Mino MCL cells; [12]): 621.3E−9 | Dm (PCI-32765) (Mino MCL cells; [13]): 1.3E−6 | Dm (PCI-32765) (Mino MCL cells; [14]): 2.5E−6

O=C(CCCCCCNC(=O)c1cnc(N(c2ccccc2)c2ccccc2)nc1)NO [Compound A, 2-(diphenylamino)-N-(7-(hydroxyamino)-7-oxoheptyl)pyrimidine-5-carboxamide]
cell viability (Mino cells [4]): decreased viability | cell viability (Z138 cells [5]): decreased viability | induction of apoptosis (Mino cells [1]): induction of apoptosis | induction of apoptosis (Z138 cells [2]): induction of apoptosis | cell cycle distribution (Mino cells [3]): little effect on cell cycle distribution | Dm (Cmpd A) (Z138 MCL cells; [6]): 1.7E−6 | Dm (Cmpd A) (Z138 MCL cells; [7]): 3.4E−6 | Dm (Cmpd A) (Z138 MCL cells; [8]): 6.8E−6 | Dm (Cmpd A) (Z138 MCL cells; [9]): 13.7E−6 | Dm (Cmpd A) (Z138 MCL cells; [10]): 27.7E−6 | Dm (Cmpd A) (Z138 MCL cells; [11]): 100.1E−9 | Dm (Cmpd A) (Z138 MCL cells; [12]): 202.2E−9 | Dm (Cmpd A) (Z138 MCL cells; [13]): 408.3E−9 | Dm (Cmpd A) (Z138 MCL cells; [14]): 824.5E−9 | Dm (Cmpd A) (Mino MCL cells; [6]): 1.6E−6 | Dm (Cmpd A) (Mino MCL cells; [7]): 13.1E−6 | Dm (Cmpd A) (Mino MCL cells; [8]): 108.1E−6 | Dm (Cmpd A) (Mino MCL cells; [9]): 894.0E−6 | Dm (Cmpd A) (Mino MCL cells; [10]): 7.4E−3 | Dm (Cmpd A) (Mino MCL cells; [11]): 338.3E−12 | Dm (Cmpd A) (Mino MCL cells; [12]): 2.8E−9 | Dm (Cmpd A) (Mino MCL cells; [13]): 23.1E−9 | Dm (Cmpd A) (Mino MCL cells; [14]): 191.2E−9
